Key:
Saccharomyces cerevisiae = assay: Inhibition of yeast alpha-glucosidase at 1.5 uM using p-nitrophenyl-alpha-glucopyranoside as substrate measured after 30 mins relative to control
[1] = Inhibition of yeast alpha-glucosidase using p-nitrophenyl-alpha-glucopyranoside as substrate measured after 30 mins; design: species or system Saccharomyces cerevisiae
[2] = Competitive-inhibition of yeast alpha-glucosidase using varying levels of p-nitrophenyl-alpha-glucopyranoside as substrate incubated for 20 mins measured at 1 min interval by Lineweaver-burk plot analysis; design: species or system Saccharomyces cerevisiae

Structure (SMILES) | inhibition (Saccharomyces cerevisiae) [%] | IC50 [1] [nM] | Ki [2] [nM]
C=CCc1cc(O)c(O)c(-c2cc(CC=C)cc(OC)c2O)c1 | 98 | 500 | –
C=CCc1cc(OC)c(O)c(-c2cc(CC=C)cc(OC)c2O)c1 | 46.7 | 2000 | –
COc1cc(CCO)cc(-c2cc(CCO)cc(O)c2O)c1O | – | > 100000 | –
C=CCc1ccc(O)c(-c2cc(CC=C)ccc2O)c1 [MAGNOLOL] | 29.8 | 2000 | –
COc1cc(CCO)cc(-c2cc(CCO)cc(OC)c2O)c1O | – | > 100000 | –
OCCc1cc(O)c(O)c(-c2cc(CCO)cc(O)c2O)c1 | 18.2 | 4100 | –
CC(=O)OCCc1ccc(O)c(-c2cc(CCOC(C)=O)ccc2O)c1 | 98.9 | 150 | 860
C=CCc1ccc(O)c(-c2cc(CC=C)cc(O)c2O)c1 | 97.6 | 490 | –
CC(=O)OCCc1cc(O)c(O)c(-c2cc(CCOC(C)=O)cc(O)c2O)c1 | 31.4 | 2900 | –
COc1cc(CCOC(C)=O)cc(-c2cc(CCOC(C)=O)cc(OC)c2O)c1O | 64.5 | 1100 | –
C=CCc1cc(O)c(O)c(-c2cc(CC=C)cc(O)c2O)c1 | 36.7 | 2100 | –
COc1cc(CCOC(C)=O)cc(-c2cc(CCOC(C)=O)cc(O)c2O)c1O | 21.3 | 3300 | –
C=CCc1ccc(O)c(-c2ccc(O)c(CC=C)c2)c1 [HONOKIOL] | 3.9 | 23000 | –
OCCc1ccc(O)c(-c2cc(CCO)ccc2O)c1 | 76.9 | 860 | –
O=c1c(O)c(-c2ccc(O)c(O)c2)oc2cc(O)cc(O)c12 [QUERCETIN] | 5.3 | 14200 | –
C[C@H]1O[C@H](O[C@H]2[C@H](O)[C@@H](O)[C@@H](O[C@H]3[C@H](O)[C@@H](O)C(O)O[C@@H]3CO)O[C@@H]2CO)[C@H](O)[C@@H](O)[C@@H]1N[C@H]1C=C(CO)[C@@H](O)[C@H](O)[C@H]1O (stereo partly specified) [ACARBOSE] | 0.7 | 270000 | –
